Test results taken from patent publication US9187411B2, “Leukotriene B4 antagonist compound” (Eli Lilly and Company, priority 2012, dated 2015).
Where two headings read alike, the source gives them in different places.

Biological target: T1, hBLT2 (Homo sapiens, UniProt Q9NPC1)
T1 construct: expressed in transfected cells; membrane preparation
T1 sequence (Q9NPC1 1-358): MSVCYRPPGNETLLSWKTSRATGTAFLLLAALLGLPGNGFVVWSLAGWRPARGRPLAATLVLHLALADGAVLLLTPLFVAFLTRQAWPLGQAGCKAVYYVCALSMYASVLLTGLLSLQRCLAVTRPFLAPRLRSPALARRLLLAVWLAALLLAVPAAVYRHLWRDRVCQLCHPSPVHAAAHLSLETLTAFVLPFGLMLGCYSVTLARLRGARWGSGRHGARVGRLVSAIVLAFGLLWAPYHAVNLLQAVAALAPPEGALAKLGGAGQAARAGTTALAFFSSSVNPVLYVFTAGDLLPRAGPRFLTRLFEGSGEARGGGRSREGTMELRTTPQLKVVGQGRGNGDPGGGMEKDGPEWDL
Test: [3H]-LTB4 binding assay in hBLT2 containing membranes
Settings: [3H]-LTB4 displacement, hBLT2/CHO-K1 membranes
Experimental: [^3H]-LTB4 and known BLT1 and BLT2 antagonists are used to generate LTB4 displacement curves and IC50 values for compounds of the present invention. Receptor inhibition by compounds of the present invention is determined relative to BLT1 inhibitor and BLT2 inhibitor reference molecules to obtain percent efficacies.
hBLT2 Test Compound Preparations: For hBLT2 assays, test compounds are prepared in DMSO to make up a 10 mM stock solution. The stock solution is initially diluted 1:10 in Buffer A (50 mM HEPES pH 7.4, 10 mM MgCl2, 10 mM NaCl, 10% glycerol (v/v), 1% BSA (w/v)), followed by 3× serial dilutions in Buffer B (50 mM HEPES pH 7.4, 10 mM MgCl2, 10 mM NaCl, 10% glycerol (v/v), 1% BSA (w/v), 10% DMSO (v/v)) creating a ten-point dilution curve. Final compound concentrations ranging from 300 μM to 15.2 nM are plated in a 96-well round-bottom plate for conducting the in vitro assays. […]
[^3H]-LTB4 (30 μL of 2.8 nM, PerkinElmer NET-852) is aliquoted into each well of a Falcon® 3072 microtiter plate (BD Biosciences). […] The plate is allowed to sit for 16 h and then read on a Packard Instrument Company Topcount® for 1 min. […]

## CCCc1c(NC(=O)CC(C)(C)C(=O)[O-])cccc1OCCCOc1cc(O)c(-c2ccc(F)cc2)cc1CC.[Na+] [Example 2, Sodium 4-[[3-[3-[2-ethyl-4-(4-fluorophenyl)-5-hydroxy-phenoxy]propoxy]-2-propyl-phenyl]amino]-2,2-dimethyl-4-oxo-butanoate]
read-out: absolute IC50
  IC50: 16.5 µM
read-out: relative IC50
  IC50: 15.4 µM
